From ChEMBL document CHEMBL1201861, “Genomics of Drug Sensitity in Cancer screening data, Wellcome Trust Sanger Institute”

How the values were obtained:
Assay in all cases: cells
HD-MY-Z = type: functional, cell-based, Homo sapiens; settings: Homo sapiens, HD-MY-Z;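 note: growth inhibition of HD-MY-Z cells, read out with a cell viability assay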
Description: SANGER: Inhibition of human HD-MY-Z cell growth in a cell viability assay.

HAL-01 = type: functional, cell-based, Homo sapiens; settings: Homo sapiens, HAL-01;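 note: growth inhibition of human HAL-01 cells, read out with a cell viability assay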
Description: SANGER: Inhibition of human HAL-01 cell growth in a cell viability assay.

LXF-289 cell line = type: functional, cell-based; settings: Homo sapiens
Description: SANGER: Inhibition of human LXF-289 cell growth in a cell viability assay.

ALL-PO = type: functional, cell-based, Homo sapiens; settings: Homo sapiens, ALL-PO;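 note: growth inhibition of ALL-PO cells, read out by a cell viability assay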
Description: SANGER: Inhibition of human ALL-PO cell growth in a cell viability assay.

NKM-1 = type: functional, cell-based, Homo sapiens; settings: Homo sapiens, NKM-1;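 note: growth inhibition of NKM-1 cells, read out with a cell viability assay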
Description: SANGER: Inhibition of human NKM-1 cell growth in a cell viability assay.

OVCAR-4 = type: functional, cell-based, Homo sapiens; settings: Homo sapiens, OVCAR-4;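 note: growth inhibition of human OVCAR-4 cells, measured with a cell viability assay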
Description: SANGER: Inhibition of human OVCAR-4 cell growth in a cell viability assay.

EW-16 = type: functional, cell-based, Homo sapiens; settings: Homo sapiens, EW-16;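 note: growth inhibition of human EW-16 cells, read out as cell viability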
Description: SANGER: Inhibition of human EW-16 cell growth in a cell viability assay.

GI-ME-N = type: functional, cell-based, Homo sapiens; settings: Homo sapiens, GI-ME-N;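 note: growth inhibition of human GI-ME-N cells, read out with a cell viability assay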
Description: SANGER: Inhibition of human GI-ME-N cell growth in a cell viability assay.

NCI-H23 = type: functional, cell-based, Homo sapiens; settings: Homo sapiens, NCI-H23;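 note: cell viability assay measuring growth inhibition of NCI-H23 cells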
Description: SANGER: Inhibition of human NCI-H23 cell growth in a cell viability assay.

SBC-1 = type: functional, cell-based, Homo sapiens; settings: Homo sapiens, SBC-1;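 note: cell viability assay measuring growth inhibition of the SBC-1 cell line, IC50 being the concentration that halves growth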
Description: SANGER: Inhibition of human SBC-1 cell growth in a cell viability assay.

LNCaP-Clone-FGC = type: functional, cell-based, Homo sapiens; settings: Homo sapiens, LNCaP-Clone-FGC
Description: SANGER: Inhibition of human LNCaP-Clone-FGC cell growth in a cell viability assay.

NCI-H1092 = type: functional, cell-based, Homo sapiens; settings: Homo sapiens, NCI-H1092;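 note: cell growth inhibition measured with a cell viability assay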
Description: SANGER: Inhibition of human NCI-H1092 cell growth in a cell viability assay.

NB10 = type: functional, cell-based, Homo sapiens; settings: Homo sapiens, NB10;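 note: growth inhibition of NB10 cells, read out by a cell viability assay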
Description: SANGER: Inhibition of human NB10 cell growth in a cell viability assay.

C8166 = type: functional, cell-based, Homo sapiens; settings: Homo sapiens, C8166;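 note: growth inhibition of human C8166 cells measured by a cell viability assay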
Description: SANGER: Inhibition of human C8166 cell growth in a cell viability assay.

GOTO = type: functional, cell-based, Homo sapiens; settings: Homo sapiens, GOTO;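 note: growth inhibition of GOTO cells, read out by a cell viability assay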
Description: SANGER: Inhibition of human GOTO cell growth in a cell viability assay.

no-11 = type: functional, cell-based, Homo sapiens; settings: Homo sapiens;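 note: growth inhibition of human NO-11 cells, read out with a cell viability assay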
Description: SANGER: Inhibition of human no-11 cell growth in a cell viability assay.

SCH = type: functional, cell-based, Homo sapiens; settings: Homo sapiens, SCH;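 note: growth inhibition of human SCH cells, read out in a cell viability assay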
Description: SANGER: Inhibition of human SCH cell growth in a cell viability assay.

COLO-800 = type: functional, cell-based, Homo sapiens; settings: Homo sapiens, COLO-800;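 note: growth inhibition of COLO-800 cells, read out with a cell viability assay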
Description: SANGER: Inhibition of human COLO-800 cell growth in a cell viability assay.

KURAMOCHI = type: functional, cell-based, Homo sapiens; settings: Homo sapiens, KURAMOCHI;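 note: growth inhibition of KURAMOCHI cells, read out with a cell viability assay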
Description: SANGER: Inhibition of human KURAMOCHI cell growth in a cell viability assay.

HEL = type: functional, cell-based, Homo sapiens; settings: Homo sapiens, HEL;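 note: growth inhibition of HEL cells, read out with a cell viability assay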
Description: SANGER: Inhibition of human HEL cell growth in a cell viability assay.

TGW = type: functional, cell-based, Homo sapiens; settings: Homo sapiens, TGW;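 note: growth inhibition of human TGW cells, read out with a cell viability assay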
Description: SANGER: Inhibition of human TGW cell growth in a cell viability assay.

GT3TKB = type: functional, cell-based, Homo sapiens; settings: Homo sapiens, GT3TKB;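 note: growth inhibition of the cell line, read out with a cell viability assay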
Description: SANGER: Inhibition of human GT3TKB cell growth in a cell viability assay.

RPMI-8226 = type: functional, cell-based, Homo sapiens; settings: Homo sapiens, RPMI-8226
Description: SANGER: Inhibition of human RPMI-8226 cell growth in a cell viability assay.

IST-SL1 = type: functional, cell-based, Homo sapiens; settings: Homo sapiens, IST-SL1;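 note: growth inhibition of human IST-SL1 cells, read out with a cell viability assay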
Description: SANGER: Inhibition of human IST-SL1 cell growth in a cell viability assay.

MOLT-16 = type: functional, cell-based, Homo sapiens; settings: Homo sapiens, MOLT-16;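 note: growth inhibition of human MOLT-16 cells, read out with a cell viability assay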
Description: SANGER: Inhibition of human MOLT-16 cell growth in a cell viability assay.

TE-8 = type: functional, cell-based, Homo sapiens; settings: Homo sapiens, TE-8;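 note: growth inhibition of TE-8 cells, measured with a cell viability readout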
Description: SANGER: Inhibition of human TE-8 cell growth in a cell viability assay.

COLO-829 = type: functional, cell-based, Homo sapiens; settings: Homo sapiens, COLO-829
Description: SANGER: Inhibition of human COLO-829 cell growth in a cell viability assay.

ATN-1 = type: functional, cell-based, Homo sapiens; settings: Homo sapiens, ATN-1;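 note: growth inhibition of human ATN-1 cells, read out with a cell viability assay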
Description: SANGER: Inhibition of human ATN-1 cell growth in a cell viability assay.

NCI-H1838 = type: functional, cell-based, Homo sapiens; settings: Homo sapiens, NCI-H1838;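 note: growth inhibition of NCI-H1838 cells, determined with a cell viability readout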
Description: SANGER: Inhibition of human NCI-H1838 cell growth in a cell viability assay.

NCI-H1581 = type: functional, cell-based, Homo sapiens; settings: Homo sapiens, NCI-H1581;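 note: cell growth inhibition read out by a viability assay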
Description: SANGER: Inhibition of human NCI-H1581 cell growth in a cell viability assay.

KS-1 = type: functional, cell-based; settings: Homo sapiens;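 note: growth inhibition of KS-1 cells, read out with a cell viability assay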
Description: SANGER: Inhibition of human KS-1 cell growth in a cell viability assay.

KM-H2 = type: functional, cell-based, Homo sapiens; settings: Homo sapiens, KM-H2;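 note: growth inhibition of KM-H2 cells, read out by a cell viability assay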
Description: SANGER: Inhibition of human KM-H2 cell growth in a cell viability assay.

ONS-76 = type: functional, cell-based, Homo sapiens; settings: Homo sapiens, ONS-76;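 note: growth inhibition of human ONS-76 cells, read out with a cell viability assay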
Description: SANGER: Inhibition of human ONS-76 cell growth in a cell viability assay.

DB = type: functional, cell-based, Homo sapiens; settings: Homo sapiens, DB
Description: SANGER: Inhibition of human DB cell growth in a cell viability assay.

LAN-6 = type: functional, cell-based, Homo sapiens; settings: Homo sapiens, LAN-6;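 note: growth inhibition of LAN-6 cells, determined with a cell viability assay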
Description: SANGER: Inhibition of human LAN-6 cell growth in a cell viability assay.

MN-60 = type: functional, cell-based, Homo sapiens; settings: Homo sapiens, MN-60;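 note: growth inhibition of the MN-60 cell line, determined with a cell viability assay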
Description: SANGER: Inhibition of human MN-60 cell growth in a cell viability assay.

CTB-1 = type: functional, cell-based, Homo sapiens; settings: Homo sapiens, CTB-1
Description: SANGER: Inhibition of human CTB-1 cell growth in a cell viability assay.

LC-2-ad = type: functional, cell-based, Homo sapiens; settings: Homo sapiens, LC-2-ad;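 note: growth inhibition of human LC-2-ad cells, read out with a cell viability assay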
Description: SANGER: Inhibition of human LC-2-ad cell growth in a cell viability assay.

NCI-H1395 = type: functional, cell-based, Homo sapiens; settings: Homo sapiens, NCI-H1395;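 note: cell viability assay read-out quantifying reduced proliferation of human NCI-H1395 cells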
Description: SANGER: Inhibition of human NCI-H1395 cell growth in a cell viability assay.

NCI-H69 = type: functional, cell-based, Homo sapiens; settings: Homo sapiens, NCI-H69;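 note: growth inhibition of the cell line, read out with a cell viability assay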
Description: SANGER: Inhibition of human NCI-H69 cell growth in a cell viability assay.

RCC10RGB = type: functional, cell-based, Homo sapiens; settings: Homo sapiens, RCC10RGB;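 note: growth inhibition of human RCC10RGB cells, read out by a cell viability assay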
Description: SANGER: Inhibition of human RCC10RGB cell growth in a cell viability assay.

RS4-11 = type: functional, cell-based, Homo sapiens; settings: Homo sapiens, RS4-11;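 note: growth inhibition of RS4-11 cells, read out by a cell viability assay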
Description: SANGER: Inhibition of human RS4-11 cell growth in a cell viability assay.

SK-MEL-1 = type: functional, cell-based, Homo sapiens; settings: Homo sapiens, SK-MEL-1;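 note: growth inhibition of human SK-MEL-1 cells, read out by a cell viability assay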
Description: SANGER: Inhibition of human SK-MEL-1 cell growth in a cell viability assay.

NB5 = type: functional, cell-based, Homo sapiens; settings: Homo sapiens, NB5;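 note: growth inhibition of NB5 cells, read out as cell viability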
Description: SANGER: Inhibition of human NB5 cell growth in a cell viability assay.

Lu-65 = type: functional, cell-based, Homo sapiens; settings: Homo sapiens, Lu-65;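 note: growth inhibition of Lu-65 cancer cells, read out by a cell viability assay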
Description: SANGER: Inhibition of human LU-65 cell growth in a cell viability assay.

NMC-G1 = type: functional, cell-based, Homo sapiens; settings: Homo sapiens, NMC-G1;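 note: growth inhibition of the NMC-G1 cell line, measured with a cell viability read-out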
Description: SANGER: Inhibition of human NMC-G1 cell growth in a cell viability assay.

NCI-H1648 = type: functional, cell-based, Homo sapiens; settings: Homo sapiens, NCI-H1648;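 note: cell viability assay measuring inhibition of NCI-H1648 cell growth, from the Sanger screening data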
Description: SANGER: Inhibition of human NCI-H1648 cell growth in a cell viability assay.

SK-UT-1 = type: functional, cell-based, Homo sapiens; settings: Homo sapiens, SK-UT-1;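 note: growth inhibition of SK-UT-1 cells, measured by a cell viability assay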
Description: SANGER: Inhibition of human SK-UT-1 cell growth in a cell viability assay.

KALS-1 = type: functional, cell-based, Homo sapiens; settings: Homo sapiens, KALS-1; read-out: IC50;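 note: growth inhibition of KALS-1 cells, determined with a cell viability assay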
Description: SANGER: Inhibition of human KALS-1 cell growth in a cell viability assay.

Measured: IC50

CN(C)CCOc1ccc(-c2nc(-c3ccncc3)c(-c3ccc4c(c3)CC/C4=N\O)[nH]2)cc1 [SB590885]
967 nM: COLO-829
> 5000 nM: LXF-289 cell line | SBC-1 | LNCaP-Clone-FGC | RPMI-8226 | MOLT-16 | KS-1 | MN-60 | CTB-1 | NCI-H1395 | RS4-11
2930 nM: HAL-01
1670 nM: NKM-1
not listed: NCI-H1648 | SK-UT-1 | KALS-1
> 5 µM: all other assays above

C[C@@H](Oc1cc(-c2cnn(C3CCNCC3)c2)cnc1N)c1c(Cl)ccc(F)c1Cl [CRIZOTINIB]
> 2000 nM: HAL-01 | LXF-289 cell line | NKM-1 | SBC-1 | LNCaP-Clone-FGC | NCI-H1648 | RPMI-8226 | COLO-829 | SK-UT-1 | KS-1 | KALS-1 | MN-60 | CTB-1 | NCI-H1395 | RS4-11
1960 nM: MOLT-16
not listed: SCH
> 2 µM: all other assays above

NC1(c2ccc(-c3nc4ccn5c(=O)[nH]nc5c4cc3-c3ccccc3)cc2)CCC1 [MK-2206]
2380 nM: KS-1
303 nM: MOLT-16
2300 nM: MN-60
610 nM: LNCaP-Clone-FGC
440 nM: SBC-1
346 nM: RS4-11
863 nM: NKM-1
1170 nM: LXF-289 cell line
3.22 µM: EW-16
2180 nM: NCI-H1395
621 nM: HAL-01
1290 nM: CTB-1
2630 nM: RPMI-8226
not listed: COLO-829 | NCI-H1838 | NCI-H1648 | SK-UT-1 | KALS-1
> 4 µM: all other assays above
